Laboratory results taken from patent US20100099663A1, “4-TRIFLUOROMETHOXYPHENOXYBENZOL-4'-SULFONIC ACIDS, METHOD FOR THE PRODUCTION AND USE THEREOF IN MEDICAMENTS” (SANOFI-AVENTIS DEUTSCHLAND GMBH, priority 2004, published 2010).

How the values were obtained:
[1] = target: T1, catalytic domain of human collagenase-3 (MMP-13) (Homo sapiens, UniProt P45452); test: Enzymatic activity of the catalytic domain of human collagenase-3 (MMP-13), fluorogenic substrate; type: biochemical; details: APMA-activated proenzyme, pH 7.5, read-out: Matrix metalloproteinase inhibition MMP-13 (IC50)
T1 construct: Determination of the Enzymatic Activity of the Catalytic Domain of Human Collagenase-3 (MMP-13); purchased INVITEK, Berlin 30 100 803
Method: Determination of the Enzymatic Activity of the Catalytic Domain of Human Collagenase-3 (MMP-13).
Activation of the proenzyme:
2 parts by volume of proenzyme were incubated with 1 part by volume of APMA solution at 37° C. for 1.5 hours. The APMA solution was prepared from a 10 mmol/l p-aminophenylmercuric acetate solution in 0.1 mmol/l NaOH by dilution with 3 parts by volume of Tris/HCl buffer pH 7.5 (see below). The pH was adjusted to between 7.0 and 7.5 by adding 1 mmol/l HCl. After activation of the enzyme it was diluted with the Tris/HCl buffer to a concentration of 1.67 μg/ml.
The enzymic activity was measured by incubating 10 μl of enzyme solution with 10 μl of a 3% strength (v/v) buffered dimethyl sulfoxide solution (reaction 1) for 15 minutes. The enzyme inhibitor activity was measured by incubating 10 μl of enzyme solution with 10 μl of a 3% strength (v/v) buffered dimethyl sulfoxide solution which contained the enzyme inhibitor (reaction 2).
The enzymic reaction both in the case of reaction 1 and in the case of reaction 2 was followed after addition of 10 μl of a 3% strength (v/v) aqueous dimethyl sulfoxide solution which contains 0.075 mmol/l of the substrate by fluorescence spectroscopy (328 nm (extinction)/393 nm (emission)).
The enzymic activity has been presented as increase in extinction/minute. The effect of the inhibitor was calculated as percentage inhibition by the following formula:
% inhibition=100−[(increase in extinction/minute in reaction 2)/(increase in extinction/minute in reaction 1)×100].
The IC50, which is the concentration of inhibitor which is necessary for 50% inhibition of the enzymic activity, was determined graphically by plotting the percentage inhibitions at various inhibitor concentrations.
The buffer solution contained 0.05% Brij (Sigma, Deisenhofen, Germany) and 0.1 mol/l of Tris/HCl, 0.1 mol/l of NaCl, 0.01 mol/l of CaCl2 (pH=7.5).
The enzyme solution contained 1.67 μg/ml of the enzyme domain. The substrate solution contained 0.075 mmol/l of the fluorogenic substrate (7-methoxycoumarin-4-yl)acetyl-Pro-Leu-Gly-Leu-3-(2′,4′-dinitrophenyl)-L-2,3-diaminopropionyl-Ala-Arg-NH2 (Bachem, Heidelberg, Germany).

[2] = target: T2, catalytic domain of neutrophil collagenase (MMP-8) (Homo sapiens, UniProt P22894); test: Enzymatic activity of the catalytic domain of neutrophil collagenase (MMP-8), fluorogenic substrate; type: biochemical; details: pH 7.5, 15 min preincubation, read-out: Matrix metalloproteinase inhibition MMP-8 (IC50)
T2 construct: Catalytic Domain of Human Stromelysin (MMP-3) and of Neutrophil Collagenase (MMP-8); made in house
Method: (§1) Preparation and Determination of the Enzymatic Activity of the Catalytic Domain of Human Stromelysin (MMP-3) and of Neutrophil Collagenase (MMP-8).
(§2) The two enzymes stromelysin (MMP-3) and neutrophil collagenase (MMP-8) were prepared by the method of Ye et al. (Biochemistry; 31 (1992) pages 11231-11235). The enzymic activity or the effect of the enzyme inhibitor was measured by incubating 10 μl of enzyme solution with 10 μl of a 3% strength (v/v) buffered dimethyl sulfoxide solution which contained the enzyme inhibitor where appropriate, for 15 minutes. After addition of 10 μl of a 3% strength (v/v) aqueous dimethyl sulfoxide solution which contained 1 mmol/l of the substrate, the enzymic reaction was followed by fluorescence spectroscopy (328 nm (ex)/393 nm(em)).
(§3) The enzymic activity is presented as increase in extinction/minute. The IC50 values listed in Table 1 were determined as the inhibitor concentrations leading in each case to 50% inhibition of the enzyme.
(§4) The buffer solution contained 0.05% Brij (Sigma, Deisenhofen, Germany) and 0.1 mol/l of Tris/HCl, 0.1 mol/l of NaCl, 0.01 mol/l of CaCl2 and 0.1 mol/l of piperazine-N,N′-bis[2-ethanesulfonic acid] (pH=7.5).
(§5) The MMP-3 enzyme solution contained 2.3 μg/ml and the MMP-8 enzyme solution 0.6 μg/ml of one of the enzyme domains prepared by the method of Ye et al. The substrate solution contained 1 mmol/l of the fluorogenic substrate (7-methoxycoumarin-4-yl)acetyl-Pro-Leu-Gly-Leu-3-(2′,4′-dinitrophenyl)-L-2,3-diaminopropionyl-Ala-Arg-NH2 (Bachem, Heidelberg, Germany).

[3] = target: T3, catalytic domain of human stromelysin (MMP-3) (Homo sapiens, UniProt P08254); test: Enzymatic activity of the catalytic domain of human stromelysin (MMP-3), fluorogenic substrate; type: biochemical; details: pH 7.5, 15 min preincubation, read-out: Matrix metalloproteinase inhibition MMP-3 (IC50)
T3 construct: Enzymatic Activity of the Catalytic Domain of Human Stromelysin (MMP-3); made in house
Method: as §1, §2, §3, §4, §5

[4] = Pharmacokinetic measurements in mice after oral administration (n-in-one study); type: in vivo; details: male C57/BL mice, oral by gavage about 7.5 mg per kg in PEG400/water 1:1, n-in-one, plasma
Method: In each case 14 or 16 male C57/BL mice with an average weight of 20 to 28 g were used for the investigation, and divided into two groups. The animals had free access to feed and water. The substances were dissolved in PEG400/water 1:1 and administered orally by gavage in a concentration of about 7.5 mg per kg (equivalent to about […] per animal). In each case, 2 novel compounds and one comparative compound were previously dissolved separately, mixed and administered simultaneously (n-in-one study). Blood samples were taken after 0.25, 0.5, 1, 2, 4, 6, 8 and 24 h, and the substance concentration was determined quantitatively by HPLC-MS under standardized conditions as described below. The individual results were initially combined within the two groups and then the average was formed therefrom. The pharmacokinetic parameters are calculated using the noncompartmental model (extravascular input).
Quantification took place by HPLC-MS-MS. An HPLC system from Agilent (1100) was used, coupled to a PE-Sciex API 4000 (triple quadruple mass spectrometer). The column used was a ProdigyR 5μ ODS, flow rate […], injected volumes 16 μl. Eluent: acetonitrile-0.002% ammonium formate. Detection took place in MS/MS mode (multiple reaction monitoring) focussed on Q1 and selective masses (fragment) filtration on Q3.
Workup of the plasma samples beforehand took place as follows: admixture of 25 μl of 60/40 acetonitrile/0.1% formate plus 25 μl of internal standard 5 μg/ml in the same solvent, plus 25 μl of blank plasma or sample plasma, plus 200 μl of acetonitrile. Mixing for 5 min was followed by centrifugation (3 min, 5000 g) and then pipetting of 200 μl into the measurement vessels.
Cmax is the maximum plasma concentration reached at one of the sampling times. AUC “area under the curve”, time course of the decrease in concentration and Cmax determine the magnitude of the value.

T3 sequence (P08254 100-272 limits assumed): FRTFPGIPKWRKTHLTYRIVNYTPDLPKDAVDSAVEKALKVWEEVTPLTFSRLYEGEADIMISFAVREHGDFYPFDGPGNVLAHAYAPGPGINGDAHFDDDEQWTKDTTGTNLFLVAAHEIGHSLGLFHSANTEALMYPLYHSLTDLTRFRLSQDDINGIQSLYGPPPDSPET
T2 sequence (P22894 100-262 limits assumed): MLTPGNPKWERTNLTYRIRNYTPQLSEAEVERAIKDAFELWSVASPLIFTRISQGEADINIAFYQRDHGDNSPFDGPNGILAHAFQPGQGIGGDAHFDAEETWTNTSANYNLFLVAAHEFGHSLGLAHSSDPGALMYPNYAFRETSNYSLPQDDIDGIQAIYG

IC50 [1] | IC50 [2] | IC50 [3] | AUC [4] | Cmax [4] | t½ [4] | Compound
2 nM | 3.6 nM | 28 nM | 2230 ng·h/mL | 1350 ng/mL | 6.6 h | O=C(NO)C1c2ccccc2CCN1S(=O)(=O)c1ccc(Oc2ccc(OC(F)(F)F)cc2)cc1 (stereo not drawn) [Example 3, 2-[4-[4-Trifluoromethoxyphenoxy)benzenesulfonyl]-1,2,3,4-tetrahydroisoquinoline-1-(N-hydroxy)carboxamide]
4 nM | 14 nM | 69 nM |  |  |  | O=C(NO)C1C2CCCCC2CCN1S(=O)(=O)c1ccc(Oc2ccc(OC(F)(F)F)cc2)cc1 (stereo not drawn) [Example 4, 2-[4-(4-Trifluoromethoxyphenoxy)benzenesulfonyl]decahydroisoquinoline-1-(N-hydroxy)carboxamide]
2 nM | 4 nM | 24 nM |  |  |  | O=C(NO)C1C2CCOC2CCN1S(=O)(=O)c1ccc(Oc2ccc(OC(F)(F)F)cc2)cc1 (stereo not drawn) [Example 6, 5-[4-(4-Trifluoromethoxyphenoxy)benzenesulfonyl]octahydrofuro[3,2-c]pyridine-4-(N-hydroxy)carboxamide]
2 nM | 4 nM | 24 nM |  |  |  | O=C(NO)C1C2CCCCC2CCCN1S(=O)(=O)c1ccc(Oc2ccc(OC(F)(F)F)cc2)cc1 (stereo not drawn) [Example 7, 2-[4-(4-Trifluoromethoxyphenoxy)benzenesulfonyl]decahydrobenzo[c]azepine-1-(N-hydroxy)carboxamide]
2.2 nM | 2.3 nM | 23 nM | 250 ng·h/mL | 450 ng/mL | 1.5 h | COc1ccc(Oc2ccc(S(=O)(=O)N3CCc4ccccc4C3C(=O)NO)cc2)cc1 (stereo not drawn) [Example 9, 2-[4-(4-Methoxyphenoxy)benzenesulfonyl]-1,2,3,4-tetrahydroisoquinoline-1-N-hydroxycarboxamide, reference compound]
 |  |  | 160 ng·h/mL | 240 ng/mL | 1.8 h | O=C(O)C1c2ccccc2CCN1S(=O)(=O)c1ccc(Oc2ccc(OC(F)(F)F)cc2)cc1 (stereo not drawn) [Example 10, 2-[4-(4-Trifluorophenoxy)benzenesulfonyl]-1,2,3,4-tetrahydroisoquinoline-1-carboxylic acid]

Compound | IC50 [1] | IC50 [2] | IC50 [3] | AUC [4] | Cmax [4] | t½ [4]
5-[4-(4-Trifluoromethoxyphenoxy)benzenesulfonyl]octahydrofuro[3,2-c]pyridine-4-carboxylic acid [Example 5] | 240 nM | 210 nM | 380 nM |  |  | 
